Laboratory results taken from publication PMC6737244, “Cathelicidin Peptides Restrict Bacterial Growth via Membrane Perturbation and Induction of Reactive Oxygen Species” (mBio, 2019).
Ends that are not written are not given here.

Tested on: E. cloacae
Assay: Single-cell division time, time-lapse phase-contrast microscopy
Type: cell-based, Enterobacter cloacae
Settings: 30 nM, first three generations
Description: To confirm that sublethal levels of cathelicidins affected the growth of Gram-negative bacteria, the division of single cells of E. coli and E. cloacae was monitored. Cells were seeded into microfluidic chambers and grown under continuous flow, and time-lapse phase-contrast microscopy was used to record the cell division time in the presence or absence of B22a.
Imaging of individual cells was conducted using the CellAsic microfluidic perfusion system (ONIX) with integrated temperature controller and B04A bacterial microfluidic plates (EMD Millipore, Billerica, MA). The CellAsic ONIX FG software (v 5.0.2.0) was used to control flow rate and deliver fresh medium with or without antimicrobial peptide (AMP). The chambers were loaded by perfusion of 50 μl of a 10^6 cells/ml bacterial suspension at 2 lb/in^2 for 15 s to prime the cells followed by 4 lb/in^2 for 15 s to trap the cells. The chamber was then rinsed at 1 lb/in^2 for 30 s followed by 5 lb/in^2 for 5 min. To quickly switch solutions, medium was perfused at 10 lb/in^2 for 10 s, and then flow was reduced to 2 lb/in^2 for the remainder of the imaging.

FRKKLKKLFKKLSPVIPLLKLG-NH2 [B22a]
Cell division time: increased twofold
